The values below are quoted from earlier work in US20210393545A1, “NATURAL PRODUCT COMPOSITION FOR STIMULATING HAIR GROWTH” (priority 2018, published 2021).

The target of one series is T1, OR2AT4 (Homo sapiens, UniProt A6NND4).
T1 construct: from tissue; host or cells: human hair follicles (outer root sheath epithelium), ex vivo
T1 sequence (A6NND4 1-320): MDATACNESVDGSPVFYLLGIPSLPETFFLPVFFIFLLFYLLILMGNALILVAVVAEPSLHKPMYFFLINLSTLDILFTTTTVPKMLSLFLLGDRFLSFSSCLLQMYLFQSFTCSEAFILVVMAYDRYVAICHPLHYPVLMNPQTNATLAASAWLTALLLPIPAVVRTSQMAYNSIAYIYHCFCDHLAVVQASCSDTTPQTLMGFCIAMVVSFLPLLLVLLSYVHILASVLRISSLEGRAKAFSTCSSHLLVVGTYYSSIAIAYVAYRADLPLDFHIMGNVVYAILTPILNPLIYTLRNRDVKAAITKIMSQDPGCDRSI
The conditions noted are these: human hair follicles ex vivo.

The subject of series [1] is testosterone 5 alpha reductase. As to conditions: reported in the literature.

As for `CC1=CCC(CCC(C)C(C)O)C1(C)C` (stereo not shown) [Sandalore®, 3-methyl-5(2,2,3-Trimethylcyclepent-3-en-1-yl) pentan-2-ol], at OR2AT4, the apoptosis result is given as “decreasing apoptosis”, the “human hair growth ex vivo” value is recorded as “prolongs human hair growth ex vivo” and the “production of IGF-1” value is reported as “increasing production of the anagen-prolonging growth factor IGF-1”.

As for `CC(C)c1cc2c(c(O)c1O)[C@@]1(C(=O)O)CCCC(C)(C)[C@@H]1CC2` [carnosic acid], the “5 alpha reductase activity” value in series [1] was “active ingredient in suppressing 5 alpha reductase activity”.
